# According to patent US7422694B2, “Process for the microbiological decontamination of water by means of photosensitive agents” (priority 2001, dated 2008):
# Key:
# [1] = test system: wild and antibiotics-resistant bacterial strains (e.g. Streptococcus and Staphylococcus strains), yeasts (e.g. Candida strains); assay: Phototoxicity of hematoporphyrin towards bacterial strains and yeasts; format: cell-based
# Staphylococcus aureus = assay: Decrease in Staphylococcus aureus viability on exposure to visible light in the presence of hematoporphyrin (FIG. 8); format: cell-based; details: hematoporphyrin at 0.1 pg/ml and 1 μg/ml, cells in stationary or logarithmic growth phase
# Method: FIG. 8 is a plot where the experimental results relating to the decrease in Staphylococcus aureus viability on exposure to visible light in the presence of hematoporphyrin at 0.1 pg/ml (circles) and 1 μg/ml (squares) concentrations were plotted. Bacterial cells were either in the stationary (closed symbols) or in the logarithmic (open symbols) growth phase.
substance,measurement,setting,value
hematoporphyrin,phototoxicity,[1],exhibited phototoxicity
same,photosensitised inactivation of Staphylococcus aureus,Staphylococcus aureus,effectively this porphyrin photosensitises the inactivation
